Measured values taken from ChEMBL document CHEMBL1135847, “Structure-activity relationship of linear peptide Bu-His-DPhe-Arg-Trp-Gly-NH(2) at the human melanocortin-1 and -4 receptors: arginine substitution” (Bioorg Med Chem Lett, 2002).

Columns and labels:
Melanocortin receptor 4 [1] = biological target: T1, Melanocortin receptor 4 (Homo sapiens, UniProt P32245); assay: Agonist potency towards human Melanocortin 4 receptor; type: functional
[2] = biological target: T2, Melanocyte-stimulating hormone receptor (Homo sapiens, UniProt Q01726); assay: Agonist potency for human Melanocortin 1 receptor; type: functional
Target sequence in this assay (Q01726 whole entry): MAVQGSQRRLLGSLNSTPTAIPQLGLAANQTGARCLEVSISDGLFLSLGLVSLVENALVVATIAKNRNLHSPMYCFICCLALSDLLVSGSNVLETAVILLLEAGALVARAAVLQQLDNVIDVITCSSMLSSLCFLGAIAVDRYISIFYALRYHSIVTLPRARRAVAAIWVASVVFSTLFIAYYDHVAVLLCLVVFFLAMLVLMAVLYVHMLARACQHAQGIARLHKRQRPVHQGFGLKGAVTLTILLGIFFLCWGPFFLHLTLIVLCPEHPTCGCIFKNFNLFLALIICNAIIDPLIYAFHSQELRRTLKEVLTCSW

Melanocortin receptor 4 [3] = biological target: T1, Melanocortin receptor 4; assay: Agonist potency towards human Melanocortin 4 receptor at 50 uM; type: functional
[4] = pKa value was evaluated; type: physicochemical
[5] = biological target: T2, Melanocyte-stimulating hormone receptor; assay: Agonist potency towards human Melanocortin 1 receptor at 50 uM; type: functional
Target sequence in this assay (Q01726 whole entry, looked up): as the sequence (Q01726 whole entry) above

T1 sequence (P32245 whole entry): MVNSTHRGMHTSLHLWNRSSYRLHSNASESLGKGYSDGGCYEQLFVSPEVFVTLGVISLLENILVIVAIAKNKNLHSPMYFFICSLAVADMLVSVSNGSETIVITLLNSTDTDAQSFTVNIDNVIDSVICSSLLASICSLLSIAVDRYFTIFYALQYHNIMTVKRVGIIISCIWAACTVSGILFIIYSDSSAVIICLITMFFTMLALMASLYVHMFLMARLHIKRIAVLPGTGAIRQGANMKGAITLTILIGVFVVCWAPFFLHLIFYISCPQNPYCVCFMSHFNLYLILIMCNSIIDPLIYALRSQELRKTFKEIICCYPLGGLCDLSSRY

SMILES	EC50 (Melanocortin receptor 4 [1]) [nM]	EC50 [2] [nM]	Activity (Melanocortin receptor 4 [3]) [%]	pKa [4]	Activity [5] [%]
CCCCN[C@@H](Cc1cnc[nH]1)C(=O)N[C@H](Cc1ccccc1)C(=O)N[C@@H](CCCNC(N)=O)C(=O)N[C@@H](Cc1c[nH]c2ccccc12)C(=O)NCC(N)=O	760	950	–	–	–
CCCCN[C@@H](Cc1c[nH]cn1)C(=O)N[C@H](Cc1ccccc1)C(=O)N[C@@H](CCCCN(C)C)C(=O)N[C@@H](Cc1c[nH]c2ccccc12)C(=O)NCC(N)=O	1670	60	–	–	–
CCCCN[C@@H](Cc1c[nH]cn1)C(=O)N[C@H](Cc1ccccc1)C(=O)N[C@@H](CCCN)C(=O)N[C@@H](Cc1c[nH]c2ccccc12)C(=O)NCC(N)=O	2500	900	–	–	–
CCCCN[C@@H](Cc1c[nH]cn1)C(=O)N[C@H](Cc1ccccc1)C(=O)N[C@@H](CCCCNC(C)C)C(=O)N[C@@H](Cc1c[nH]c2ccccc12)C(=O)NCC(N)=O	–	255	25	–	–
CCCCN[C@@H](Cc1cnc[nH]1)C(=O)N[C@H](Cc1ccccc1)C(=O)N[C@@H](CCC(=O)NC(=N)N)C(=O)N[C@@H](Cc1c[nH]c2ccccc12)C(=O)NCC(N)=O	10	1	–	~7	–
CCCCN[C@@H](Cc1c[nH]cn1)C(=O)N[C@H](Cc1ccccc1)C(=O)N[C@@H](Cc1c[nH]cn1)C(=O)N[C@@H](Cc1c[nH]c2ccccc12)C(=O)NCC(N)=O	1420	1700	–	–	–
CCCCN[C@@H](Cc1cnc[nH]1)C(=O)N[C@H](Cc1ccccc1)C(=O)N[C@@H](CCCNC(N)=NC#N)C(=O)N[C@@H](Cc1c[nH]c2ccccc12)C(=O)NCC(N)=O	70	15	–	~0	–
CCCCN[C@@H](Cc1c[nH]cn1)C(=O)N[C@H](Cc1ccccc1)C(=O)N[C@@H](CCC/N=C(/N)N[N+](=O)[O-])C(=O)N[C@@H](Cc1c[nH]c2ccccc12)C(=O)NCC(N)=O	–	–	85	–	40
CCCCN[C@@H](Cc1cnc[nH]1)C(=O)N[C@H](Cc1ccccc1)C(=O)N[C@@H](CCCCNCc1ccccc1)C(=O)N[C@@H](Cc1c[nH]c2ccccc12)C(=O)NCC(N)=O	4800	85	–	–	–
CCCCN[C@@H](Cc1cnc[nH]1)C(=O)N[C@H](Cc1ccccc1)C(=O)N[C@@H](CCCNC(=N)N)C(=O)N[C@@H](Cc1c[nH]c2ccccc12)C(=O)NCC(N)=O	20	10	–	–	–
CCCCN[C@@H](Cc1cnc[nH]1)C(=O)N[C@H](Cc1ccccc1)C(=O)N[C@@H](CCCN(C)C)C(=O)N[C@@H](Cc1c[nH]c2ccccc12)C(=O)NCC(N)=O	3280	350	–	–	–
